Data on 5 molecules can be found in EP0309541B1, “SULFONYLCARBOXAMIDES” (AMERICAN HOME PRODUCTS CORPORATION, priority 1987, dated 1988).

The structures appear in SMILES notation.

In assay [1] the test system is rat carrageenan paw edema. Kind of assay: Rat carrageenan paw edema assay. The conditions noted are these: for ED50: oral, standard drugs, rat paw edema, read-out: Oral ED50 (95% C.L.); for % Inhibition at 50 mg/kg (peroral): 1 hour prior to carrageenan, edema at 3 hours. It counts as in vivo. The method, then: The compounds of the invention are further tested in the rat carrageenan paw edema assay to determine their ability to inhibit the acute inflammatory response.
(§1) This assay is carried out as follows:
140-180 gm male Sprague-Dawley rats, in groups of 6 animals are injected subcutaneously in the right paw with 0.1 ml of 1% carrageenan at zero time. Mercury plethysmographic readings (ml) of the paw are made at zero time and 3 hours later. Test compounds are suspended or dissolved in 0.5% methylcellulose and given perorally 1 hour prior to carrageenan administration.
The increase in paw volume (edema in ml.) produced by the carrageenan is measured. […] Unpaired Student's t-test is used to determine statistical significance.
For orientation: The carrageenan paw model is a standard test of acute inflammation.

Assay [2] deals with LTD₄ induced bronchoconstriction. Kind of assay: Inhibition of leukotriene-induced bronchospasm in guinea pigs in vivo. The conditions noted are these: 10 minutes before induction of bronchospasm, inhibition of % max AUC. Here is the method: The assay of this Example measures the in vivo ability of the compounds of the invention to inhibit the bronchospasm induced in guinea pigs by the exogenously administered leukotrienes C₄ and/or D₄.
as §1
Male Hartley strain guinea pigs (350-600g) are anesthetized with pentobarbital sodium (50 mg/kg, i.p.). The jugular vein is cannulated for injection of drugs and the carotid artery for monitoring blood pressure. The trachea is cannulated for artificial ventilation by a miniature Starling pump and for indirect measurement of respiratory volume changes. The animals are then pretreated with succinylcholine (2 mg/kg i.v.) and indomethacin (10 mg/kg i.v. in trizma 8.3 buffer, 9 minutes prior to leukotriene challenge). Submaximal bronchoconstrictor responses are established in control animals by varying the dose-levels of leukotriene. Intravenous dose-levels for LTC₄ range from 0.4 to 0.6 µg/kg and for LTD₄ the range is from 0.3 to 0.5 µg/kg.
Test drugs (dissolved in a solvent such as propylene glycol, polyethylene glycol 400 or saline) are administered either intraduodenally, by aerosol or intragastrically at 2 or 10 minutes before induction of bronchospasm by administration of either LTC₄ or LTD₄ at the predetermined dose-level. Aerosol of soluble drugs or leukotrienes are produced in-line for 10 seconds only by actuation of an ultrasonic nebulizer (Monaghan). Aerosolized drug dosage is expressed in terms of solution concentration and by a fixed aerosol exposure time (approximately 10 seconds). Control animal receive solvent (2 ml/kg i.d. or appropriate aerosol) in place of drug.
Respiratory volume changes are determined by a calibrated piston whose travel is recorded, via a linear transducer, on a Beckman Dynograph recorder. Maximal bronchoconstrictor volume is determined by clamping off the trachea at the end of the experiment. Overflow volumes at 1, 3 and 5 minutes are obtained from the recorded charts.
Student's t-test for unpaired data is used to determine statistical significance (p < 0.05).

The subject of assay [3] is synthesis of 5-HETE by rat glycogen elicited polymorphonuclear leukocytes. Kind of assay: Inhibition of 5-HETE synthesis by rat glycogen elicited polymorphonuclear leukocytes. It is filed as cell-based. The conditions noted are these: Leukocyte, rat peritoneal PMN, A23187 10 µM, [14C] arachidonic acid, read-out: IC₅₀. The method, then:
The assay of this Example measures the ability of the compounds of the invention to inhibit the synthesis of 5-HETE by rat glycogen elicited polymorphonuclear leukocytes.
The assay is carried out as follows:
(§2) Peritoneal PMN are obtained from female Wistar rats (150-250 g) that received an i.p. injection of 6% glycogen (10 ml). After 24 hours, rats are killed by Co₂ asphyxiation and peritoneal cells are harvested by peritoneal lavage using Ca⁺⁺ and Mg⁺⁺ free Hanks' balanced salt solution (HBSS). The peritoneal exudate is centrifuged at 400 g for 10 minutes. After centrifugation, the lavaged fluid is removed and the cell pellet is resuspended in HBSS containing Ca⁺⁺ and Mg⁺⁺ and 10 mM L-cysteine at a concentration of 2 x 10⁷ cells/ml. To 1 ml portions of cell suspension, test drugs or vehicle are added and incubated at 37°C for 10 minutes. Following this preincubation, the calcium ionophore (10 µM), A23187, is added together with 0.5 µCi [₁₄C] arachidonic acid and further incubated for 10 minutes. The reaction is stopped by the addition of ice cold water (3 ml) and acidifying to pH 3.5. Lipoxygenase products are then extracted twice into diethyl ether. […] After chromatography, the areas associated with 5-HETE standard are identified by autoradiography, cut out and quantitated by liquid scintillation.

Assay [4] relates to synthesis of the arachidonic acid cyclooxygenase oxidation product PGE₂. Kind of assay: Inhibition of PGE₂ synthesis (cyclooxygenase product) by rat polymorphonuclear leukocytes. It is filed as cell-based. The conditions noted are these: Leukocyte, rat peritoneal PMN, procedure of Example 4, read-out: IC₅₀. The method, then: as §2, with “scintillation. […]” for “scintillation.”
In this assay, the procedure of Example 4 is carried out as described. […] After chromatography, the areas associated with the PGE₂ standard are identified by autoradiography, cut out and quantitated by liquid scintillation techniques.
The results are calculated as in Example 4.

[5] abbreviates: 25 mg/kg intraduodenally administered.
Where [6] appears, read: 25 mg/kg intragastrically administered.

The term ED50 denotes the midpoint of the dose-response relation. For the molecule `CC(=O)Oc1ccccc1C(=O)O` [Aspirin], the ED50 in assay [1] is 145 mg/kg.

Usually % Inhibition stands for the relative decrease from the control value, in per cent. As to `Cc1ccc(S(=O)(=O)NC(=O)CCc2cccc(OCc3ccc4ccccc4n3)c2)cc1` [Example 1, N-[(4-Methylphenyl)sulfonyl]-3-(2-quinolylmethoxy)benzenepropanamide], the “% Inhibition” value in assay [2] (setting [5]) is listed as 97%; in assay [2] (setting [6]), 66%. Also, the “% Inhibition at 50 mg/kg (peroral)” value in assay [1] is 40%.

With `Cc1ccc(S(=O)(=O)NC(=O)c2cccc(OCc3ccc4ccccc4n3)c2)cc1` [Example 3, N-[(4-Methylphenyl)sulfonyl]-3-(2-quinolinylmethoxy)benzamide], the IC50 in assay [3] amounted to 6 µM; in assay [4], 13 µM. Further, the “% Inhibition” value in assay [2] (setting [5]) turned out to be 97%; in assay [2] (setting [6]), 91%. Besides, the “% Inhibition at 50 mg/kg (peroral)” value in assay [1] was found to be 50%.

Turning to `COc1ccc2c(c1)c(CC(=O)O)c(C)n2C(=O)c1ccc(Cl)cc1` [Indomethacin], the ED50 in assay [1] worked out at 3.7 mg/kg.

On to `CCCCC1C(=O)N(c2ccccc2)N(c2ccccc2)C1=O` [Phenylbutazone], for which the ED50 in assay [1] came to 26.2 mg/kg.
